Seven compounds from US20220151979A1, “COMPOSITION FOR PREVENTION OR TREATMENT OF CARDIOVASCULAR AND METABOLIC DISEASE COMPRISING NORANHYDROICARITIN” (SEOUL NATIONAL UNIVERSITY HOSPITAL, priority 2019, published 2022) can be followed below.

Each structure is given as a SMILES string.

What all share (format): cell-based, human
Assay [1] has as its system PCSK9. The assay can be described thus: Immunoblot of PCSK9 in HepG2 cells, noranhydroicaritin and pravastatin, pitavastatin, fluvastatin or simvastatin (Table 1). The note with it: statin 5 μM singly, untreated = 1 ± 0.04. As to the method: The cells aliquoted by the method of Example 7 were treated with noranhydroicaritin or each statin (pravastatin, pitavastatin, fluvastatin, or simvastatin) singly or with noranhydroicaritin and a statin (pravastatin, pitavastatin, fluvastatin, or simvastatin) simultaneously, and the proteins were extracted. On an SDS-polyacrylamide gel, 30 μg of each protein was electrophoresed, and attached to a membrane, and then protein expression levels were confirmed using the respective antibodies: PCSK9 and LDLR.

Assay [2] concerns PCSK9. The assay can be described thus: Immunoblot of PCSK9 in HepG2 cells, noranhydroicaritin and statin singly or in combination. Particulars: treated singly. On the procedure:
The cells aliquoted by the method of Example 7 were treated with noranhydroicaritin or a statin (atorvastatin or rosuvastatin) singly or with noranhydroicaritin and a statin (atorvastatin or rosuvastatin) simultaneously, and the proteins were extracted. On an SDS-polyacrylamide gel, 30 μg of each protein was electrophoresed, and attached to a membrane, and then protein expression levels were confirmed using the respective antibodies: phospho-AMPK, PCSK9, LDLR, and PPARγ.
For orientation: A western blot detects proteins with antibodies after separation by electrophoresis.

Assay [3] relates to SREBP 1 promoter. The assay can be described thus: SREBP 1 promoter-reporter luciferase assay in HEK293T cells. The note with it: pGL4.14-SREBP-transfected HEK293T cells, 18 hours, compared to control. As to the method:
(§1) In order to confirm the SREBP gene expression inhibitory effect of noranhydroicaritin, HEK293T cells were treated with noranhydroicaritin and kaempferol, and it was confirmed whether the expression of SREBP was inhibited through a luciferase assay.
(§2) i) A primer was prepared to contain KpnI and XhoI restriction enzyme sites in the SREBP 1 and 2 promoter gene region, and then PCR (polymerase chain reaction) and electrophoresis on an agarose gel were performed to isolate SREBP promoter region DNA. A pGL4.14-[luc2/Hygro] vector containing a firefly luciferase as a reporter gene was treated with the same restriction enzymes (KpnI and XhoI), and then isolated via agarose gel electrophoresis and gel extraction. The purely isolated SREBP promoter gene region and pGL4.14-[luc2/Hygro] vector were reacted for 1 hour using In-fusion DNA ligase (Takara), and then transformed into E. coli to prepare a promoter-reporter construct in which the SREBP promoter was inserted, and this was named pGL4.14-SREBP.
(§3) ii) In order to measure the transcriptional activity of the SREBP promoter gene, HEK293T cells were transfected with pGL4.14-SREBP, and then the luciferase activity of the cell extract was measured. […] Thereafter, the luciferase activity was measured by the method of Example 6. […]

For assay [4], the system named is SREBP 2 promoter. The assay can be described thus: SREBP 2 promoter-reporter luciferase assay in HEK293T cells. Particulars: pGL4.14-SREBP-transfected HEK293T cells, 18 hours, compared to control. As to the method:
as §1, §2, §3

Regarding `CC(C)n1c(/C=C/C(O)CC(O)CC(=O)O)c(-c2ccc(F)cc2)c2ccccc21` (centres unmarked) [Fluvastatin, fluvastatin], in assay [1], the PCSK9 came out at 1.63 ± 0.02.
On to `O=C(O)C[C@H](O)C[C@H](O)/C=C/c1c(C2CC2)nc2ccccc2c1-c1ccc(F)cc1` [Pitavastatin, pitavastatin], for which, in assay [1], the PCSK9 is given as 1.59 ± 0.02.
The same measure, in the same setting: with `CC[C@H](C)C(=O)O[C@H]1C[C@H](O)C=C2C=C[C@H](C)[C@H](CC[C@@H](O)C[C@@H](O)CC(=O)O)[C@H]21` [Pravastatin, pravastatin] the figure was 1.9 ± 0.06; with `CCC(C)(C)C(=O)O[C@H]1C[C@@H](C)C=C2C=C[C@H](C)[C@H](CC[C@@H]3C[C@@H](O)CC(=O)O3)[C@H]21` [Simvastatin, simvastatin], 1.85 ± 0.11.
For `CC(C)c1c(C(=O)Nc2ccccc2)c(-c2ccccc2)c(-c2ccc(F)cc2)n1CC[C@@H](O)C[C@@H](O)CC(=O)O` [atorvastatin], the “quantity of PCSK9 (immunoblot)” value in assay [2] is recorded as “increased”.
For the compound `O=c1c(O)c(-c2ccc(O)cc2)oc2cc(O)cc(O)c12` [kaempferol, reference compound], the “SREBP 1 luciferase activity” value in assay [3] is reported as “actually increased”. For the same compound, in assay [4], the “SREBP 2 luciferase activity” value is “actually increased”.
In the case of `CC(C)c1nc(N(C)S(C)(=O)=O)nc(-c2ccc(F)cc2)c1/C=C/[C@@H](O)C[C@@H](O)CC(=O)O` [rosuvastatin], the “quantity of PCSK9 (immunoblot)” value in assay [2] is on record as “increased”.
